Measurements taken from patent US4370337A, “1,2,4-Triazole derivatives as antifertility agents and pharmaceutical compositions containing them” (Gruppo Lepetit S.p.A., priority 1980, dated 1983).

How the values were obtained:
hamsters = assay: Post-coital antifertility activity in mated hamsters, oral route; assay type: in vivo, Syrian golden hamster; details: for reduction of live fetuses: oral, 20 mg/Kg, hamsters
Protocol: (§1) Representative experiments for assessing antifertility activity were carried out with female Syrian golden hamsters weighing 100 to 130 g. The animals were mated and the presence of sperm in the vagina was taken as evidence of mating. The day sperm was detected was considered day one of pregnancy, since in our laboratory and those of other investigators 90 to 100% of animals that mate as evidenced by vaginal sperm are pregnant.
(§2) Pregnancy was later confirmed at the time of autopsy by presence of fetuses or implantation sites in the uterus.
(§3) Even if an animal aborts the fetus, implantation scars still remain as evidence that the animal has been pregnant.
The animals were autopsied on day 14 of pregnancy and the uteri were examined for evidence of pregnancy (implantation sites, fetal resorptions or live fetuses), hemorrage, and evidence of abnormalities of the uterus, placenta or fetuses. A compound was considered to be active if there was a reduction of live fetuses in at least 60% of the treated animals and the presence of implantation sites proves the animal to have been pregnant. […] The compounds were then studied for dose-activity relationships and the corresponding ED50 values i.e., 100% activity (absence of live fetuses) in 50% of the animals, were also determined. The following table reports the ED50 values of some representative compounds of the invention:
Favorable results were also obtained by administering the compounds of the invention by oral route. The experiments for assessing this property were carried out on hamsters following the same procedure as above, with the obvious exception that the compounds were adminstered orally instead of subcutaneously.

[1] = test system: female Syrian golden hamsters; assay: Post-coital antifertility activity in mated hamsters, subcutaneous (autopsy on day 14: implantation sites, live fetuses); assay type: in vivo, Syrian golden hamster; details: for ED50: Mesocricetus auratus, sc, s.c. hamsters, days 4-8 of pregnancy, read-out: ED50 (100% activity, i.e. absence of live fetuses, in 50% of the animals); for antifertility activity (active according to the criteria): s.c. in sesame oil, 10 mg/kg daily for 5 days (days 4-8 of pregnancy), hamsters
Protocol: as §1, §2, §3
The animals were autopsied on day 14 of pregnancy and the uteri were examined for evidence of pregnancy (implantation sites, fetal resorptions or live fetuses), hemorrage, and evidence of abnormalities of the uterus, placenta or fetuses.

Row | Structure (SMILES) | ED50 (hamsters; Mesocricetus auratus, po, p.o. hamsters, read-out: ED50 (100% activity, i.e. absence of live fetuses, in 50% of the animals)) [mg/kg] | reduction of live fetuses (hamsters) [%] | ED50 [1] [mg/kg] | antifertility activity (active according to the criteria) [1]
1 | COc1cccc(-c2n[nH]c(-c3ccccc3CO)n2)c1 [Example 1, 5-(2-hydroxymethylphenyl)-3-(3-methoxyphenyl)-1H-,1,2,4-triazole] | 10 | 60 | 0.08 | active
2 | COc1cccc(-c2nc(-c3ccccc3C=O)n[nH]2)c1 [Example 3, 2-[5-(3-methoxyphenyl)-1H-1,2,4-triazol-3yl]benzaldehyde] |  | 60 | 0.1 | active
